Source: article PMC8958501, “Hypothesis-Driven, Structure-Based Design in Photopharmacology: The Case of eDHFR Inhibitors” (Journal of Medicinal Chemistry, 2022)
Where two headings read alike, the source gives them in different places.

Columns and labels:
eDHFR = biological target: T1, eDHFR (Escherichia coli, UniProt P0ABQ4); experiment: biochemical;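 further: purified E. coli DHFR colorimetric assay, enzyme with NADPH 3 min then inhibitor (10^-12 to 10^-5 M) 7 min, rate ΔAbs/s relative to DMSO control (1% v/v), triplicates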
T1 construct: made in house; host or cells: E. cloni EXPRESS BL21 (DE3) cells (Lucigen), pT7-SC1 plasmid
Experimental: A 10 mM stock solution of the inhibitor in DMSO was divided into two parts. One half was thermally adapted with a heat gun for 1 min to obtain only the trans isomer.
The compounds were tested as eDHFR inhibitors via a colorimetric assay (Sigma-Aldrich, Catalog No. CS0340). Instead of the human DHFR protein provided in the kit, the in-house purified eDHFR was used. In a 3 mL cuvette, eDHFR (∼20 ng) was incubated with NADPH (60 μM, final) for 3 min, followed by an incubation with the inhibitor (from 10^–5 to 10^–12 M, final) for an additional 7 min. […] The concentration of DMSO in the final volume was 1% v/v for all enzymatic reactions. The measurements were performed in triplicates. For the control enzymatic reactions, eDHFR was incubated with NADPH and DMSO (1% v/v, final). […] The related control enzymatic reaction was also performed under continuous irradiation with λ1 = 390 nm light. Linear regression was performed in Microsoft Excel to calculate ΔAbs/s. % eDHFR activity was calculated as the ratio between ΔAbs/s for the sample and ΔAbs/s for the control reaction. GraphPadPrism 5.0 (GraphPad Software, Inc., version 5.00) was used for the determination of the IC50 of each inhibitor. Nonlinear regression was used for data fitting.

[1] = Thermal cis-to-trans isomerization (thermal half-life of the metastable cis isomer); format: physicochemical; conditions: thermal cis-to-trans isomerization, DMSO, 25 °C, 20 µM
Experimental: UV–vis absorption spectra were recorded on an Agilent 8453 UV–vis Spectrophotometer. Photochemical isomerization (photoswitching) was achieved by irradiation from the side in a fluorescence quartz cuvette (width = 1.0 cm) using a custom-built (Prizmatix/Mountain Photonics) multiwavelength fiber coupled LED system (FC6-LED-WL) including the following LEDs: 365A, 390B, 420Z, 445B, 535R, 630CA. A detailed description of the setup was published by us recently.[84] Alternatively, the samples were irradiated at 340 nm using the LOT Quantum design setup with 300 W Xe-Arc lamp, using the Thorlabs FB340-10 Bandpass filter. A Quantum Northwest TC1 temperature controller was used to maintain the temperature at 25 °C during photochemical studies. To analyze the fatigue resistance of the compounds, repeated irradiation cycles were performed using alternating wavelengths. The decrease and increase of the π–π* transition band was followed by UV–vis spectroscopy (Agilent 8453) at 25 °C while stirring. To determine the thermal lifetime for the metastable cis isomer, samples were irradiated with the custom-built setup until photostationary state (PSS) was reached. Then, the cuvettes were placed in a JASCO V750 spectrophotometer with a PTC 424S/15 temperature controller, and the recovery of the π–π* transition was followed while stirring at 25 °C (for solutions in DMSO and eDHFR assay buffer) or 37 °C (for solutions in 10 mM Tris-HCl buffer pH 7.0). The data were fitted using a first-order exponential function in OriginPro 2018. For the PSD determination by ^1H NMR spectroscopy, 0.5 mL of a 2 mM solution of the respective compound in DMSO-d6 was thermally equilibrated by briefly (∼10 s) heating the sample with a heat gun. Subsequently, the sample was irradiated in a glass NMR tube with a 365 nm hand-held lamp (Spectroline ENB-280C) or the LEDs of the custom-built setup. Detailed data are reported in the SI.

E. coli CS1562 = experiment: Antibacterial activity assay (MIC, bacterial growth curves); format: cell-based, Escherichia coli; conditions: for MIC: Escherichia coli, E. coli CS1562, 24 h; for MIC / bacterial growth inhibition, same in both forms: both before and after irradiation with λ1 = 365 nm
Experimental: A culture of E. coli CS1562 was grown overnight in LB medium (10 g/L tryptone, 5 g/L yeast extract, 5 g/L NaCl) containing tetracycline (10 μg/mL) at 37 °C. The OD600 was measured, and the culture was diluted to 0.002 OD600 in LB medium. Series dilutions of the compounds were prepared in DMSO and diluted 25 times in sterile LB medium in a black sterile Eppendorf tube. […] Subsequently, the dark samples were added to the 96-well plate (100 μL, triplicates). Lastly, the LB medium containing E. coli CS1562 at 0.002 OD was added to every well (100 μL). The cells were grown overnight at 37 °C in a plate reader (Synergy H1, Biotek), and the OD600 was measured every 10 min with a 10 s shaking step before each measurement. The OD600 curves were background-corrected by subtracting the value at t = 0. […] Detailed data are reported in the SI.

[2] = IC50 Dark, dark-adapted (thermally adapted, trans isomer)
[3] = after irradiation, read-out: DHFR inhibition IC50 (nM) after irradiation
[4] = before irradiation, read-out: DHFR inhibition IC50 (nM) before irradiation
[5] = irradiated with λ1 (1: continuous irradiation at 390 nm), read-out: IC50 Light
[6] = no considerable activity up to, dark-adapted and irradiated states
[7] = irradiated to PSS with λ1 (340 nm for 3, 365 nm for 6-15), read-out: IC50 Light
[8] = light or radiation study, after irradiation with λ1 = 365 nm, read-out: MIC Light
[9] = light or radiation study, after irradiation, read-out: MIC (µM) after irradiation
[10] = light or radiation study, before irradiation, read-out: MIC (µM) before irradiation

T1 sequence (P0ABQ4 whole entry): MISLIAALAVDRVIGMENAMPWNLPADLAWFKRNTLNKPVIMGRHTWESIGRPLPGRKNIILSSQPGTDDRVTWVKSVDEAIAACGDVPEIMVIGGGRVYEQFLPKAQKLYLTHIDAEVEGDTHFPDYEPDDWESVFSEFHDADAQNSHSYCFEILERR

Row | SMILES | IC50 (eDHFR; fragment, no irradiation, read-out: IC50) [nM] | IC50 (eDHFR; [2]) [nM] | IC50 (eDHFR; [3]) [nM] | IC50 (eDHFR; [4]) [nM] | IC50 (eDHFR; [5]) [nM] | IC50 (eDHFR; [6]) [nM] | t1/2 DMSO (25 °C) [1] [h] | melting point | IC50 (eDHFR; DHFR inhibition IC50 (nM) before irradiation, before irradiation) [nM] | IC50 (eDHFR; [7]) [nM] | MIC (E. coli CS1562; [8]) [µM] | MIC (E. coli CS1562; [9]) [µM] | MIC (E. coli CS1562; [10]) [µM] | MIC (E. coli CS1562; dark, read-out: MIC Dark) [µM] | MIC / bacterial growth inhibition, same in both forms (E. coli CS1562; E. coli CS1562) [µM] | light-induced difference in antibacterial activity (dark MIC vs irradiated MIC) (E. coli CS1562; irradiation with λ1 = 365 nm, E. coli CS1562)
1 | Nc1ccnc(N)n1 [2,4-diaminopyrimidine, reference compound] | 390000 ± 150000 | – | – | – | – | – | – | – | – | – | – | – | – | – | – | –
2 | Nc1ncc(/N=N/c2ccccc2)c(N)n1 [Compound 1, (E)-5-(Phenyldiazenyl)pyrimidine-2,4-diamine] | – | > 10000 | > 10000 | > 10000 | > 10000 | > 10000 | 1.3 | > 250 °C | – | – | – | – | – | – | – | –
3 | Nc1ncc(-c2ccc(/N=N/c3ccccc3)cc2)c(N)n1 [Compound 2, (E)-5-[4-(Phenyldiazenyl)phenyl]pyrimidine-2,4-diamine] | – | > 10000 | > 10000 | > 10000 | > 10000 | > 10000 | 27 | 199 to 201 °C | – | – | – | – | – | – | – | –
4 | Nc1ncc(C#Cc2ccc(/N=N/c3ccccc3)cc2)c(N)n1 [Compound 4, (E)-5-{[4-(Phenyldiazenyl)phenyl]ethynyl}pyrimidine-2,4-diamine] | – | > 10000 | > 10000 | > 10000 | > 10000 | > 10000 | 8.6 | – | – | – | – | – | – | – | – | –
5 | Nc1ncc(C#Cc2cccc(/N=N/c3ccccc3)c2)c(N)n1 [Compound 5, (E)-5-{[3-(Phenyldiazenyl)phenyl]ethynyl}pyrimidine-2,4-diamine] | – | 5300 | – | – | 2600 | – | > 24 | 207 to 209 °C | – | – | – | – | – | – | – | –
6 | COc1ccc(/N=N/c2ccc(C(C)(C#Cc3cnc(N)nc3N)OC)cc2)cc1 (stereo not shown) [Compound 8, (E)-5-{3-Methoxy-3-[4-((4-methoxyphenyl)diazenyl]phenyl}but-1-yn-1-yl)pyrimidine-2,4-diamine] | – | 330 ± 190 | 200 ± 77 | – | 200 | – | > 24 | 186 to 189 °C | 330 ± 190 | 200 ± 77 | > 80 | > 80 | > 80 | > 80 | > 80 | –
7 | COC(C)(C#Cc1cnc(N)nc1N)c1ccc(/N=N/c2c(C)nn(C)c2C)cc1 (stereo not shown) [Compound 9, (E)-5-(3-Methoxy-3-(4-((1,3,5-trimethyl-1H-pyrazol-4-yl)diazenyl)phenyl)but-1-yn-1-yl)pyrimidine-2,4-diamine] | – | – | 640 ± 510 | 220 ± 60 | – | – | > 24 | 162 to 164 °C | – | – | 80 | 80 | 80 | 80 | – | did not display any light-dependent potency difference
8 | COC(C)(C#Cc1cnc(N)nc1N)c1ccc(/N=N/c2cccc(C(=O)O)c2)cc1 (stereo not shown) [Compound 10, (E)-3-{[4-(4-(2,4-Diaminopyrimidin-5-yl)-2-methoxybut-3-yn-2-yl)phenyl]diazenyl}benzoic acid] | – | 24 | – | – | – | – | > 24 | 190 °C (dec.) | – | 57 | 20 | 20 | 20 | 20 | 20 | –
